Test results published in patent US10766869B2, “Triazoles for the treatment of demyelinating dieases” (Vertex Pharmaceuticals Incorporated, priority 2015, dated 2020).
Where two headings read alike, the source gives them in different places.

Test system: primary rat mixed cortical cells
Test: In vitro myelination assay (MBP positive myelin strands, fold myelin pixels above background)
Assay type: cell-based
Settings: Rattus norvegicus; for fold induction at 1 µM: 1.0 μM compound; for fold induction at 10 µM: 10.0 μM compound
Procedure, shortened: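 Myelination read as total MBP-immunopositive strand pixels per well, imaged at 10× after fixation on day 14 and expressed relative to untreated wells, at 1.0 and 10.0 μM. Cells: dissociated postnatal day 1 rat cortex, cultured two weeks with compound, re-dosed at days 6 and 10.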

[1] = read-out: Fold myelin pixels above background relative to baseline of no added compound
[2] = relative to baseline of no added compound, read-out: Fold myelin pixels above background
[3] = relative to baseline of no added compound, read-out: Fold myelin pixels above background, 1.0 μM
[4] = relative to baseline of no added compound, read-out: Fold myelin pixels above background, 10.0 μM

SMILES | fold induction at 1 µM [1] | fold induction at 10 µM [1] | fold induction at 1 µM [2] | fold induction at 10 µM [2] | fold induction at 1 µM [3] | fold induction at 10 µM [4]
Fc1cc(F)cc(-n2cnc(Nc3cc(C(F)(F)F)cc(N4CCN([C@H]5CCOC5)CC4)n3)n2)c1 (single isomer, unassigned) [Compound 787] | 1 to 10 | 10 to 100 |  |  |  | 
Cc1cc(Nc2ncn(-c3cc(F)cc(F)c3)n2)cc(N2CCC(C(=O)N3CCOCC3)CC2)c1 [Compound 589, [1-[3-[[1-(3,5-difluorophenyl)-1,2,4-triazol-3-yl]amino]-5-methyl-phenyl]-4-piperidyl]-morpholino-methanone] |  |  | 10 to 100 | ≤ 1 |  | 
Cc1cc(N2CC(N3CCOCC3)C2)cc(Nc2ncn(-c3cc(F)cc(F)c3)n2)n1 [Compound 616, N-[1-(3,5-difluorophenyl)-1,2,4-triazol-3-yl]-6-methyl-4-(3-morpholinoazetidin-1-yl)pyridin-2-amine] |  |  | 1 to 10 | ≤ 1 |  | 
Cc1cc(Nc2ncn(-c3cc(F)cc(F)c3)n2)cc(N2CCN(C(C)(CO)CO)CC2)c1 [Compound 311, 2-[4-[3-[[1-(3,5-difluorophenyl)-1,2,4-triazol-3-yl]amino]-5-methyl-phenyl]piperazin-1-yl]-2-methyl-propane-1,3-diol] |  |  |  |  | ≤ 1 | ≤ 1
Cc1c(Nc2ncn(-c3ccccn3)n2)cc(N2CCN(C3COC3)CC2)cc1OC(C)C [Compound 862, N-[3-isopropoxy-2-methyl-5-[4-(oxetan-3-yl)piperazin-1-yl]phenyl]-1-(2-pyridyl)-1,2,4-triazol-3-amine] | 1 to 10 | 10 to 100 |  |  |  | 
Cc1cc(Nc2ncn(-c3cc(F)cc(F)c3)n2)nc(N2CCN(C)CC2)c1 [Compound 731, N-[1-(3,5-difluorophenyl)-1,2,4-triazol-3-yl]-4-methyl-6-(4-methylpiperazin-1-yl)pyridin-2-amine] |  |  | 10 to 100 | ≤ 1 |  | 
Cc1cc(Nc2ncn(-c3cc(F)cc(F)c3)n2)cc(N2CC(n3cccn3)C2)c1 [Compound 379, 1-(3,5-difluorophenyl)-N-[3-methyl-5-(3-pyrazol-1-ylazetidin-1-yl)phenyl]-1,2,4-triazol-3-amine] |  |  |  |  | 10 to 100 | 100 to 1000
CCc1cc(Nc2ncn(-c3ccccc3)n2)cc(N2CCN(C3COC3)CC2)c1 [Compound 330, N-[3-ethyl-5-[4-(oxetan-3-yl)piperazin-1-yl]phenyl]-1-phenyl-1,2,4-triazol-3-amine] |  |  |  |  | 1000 to 10000 | ≤ 1
Cc1cc(Nc2ncn(-c3cc(F)cc(F)c3)n2)cc(N2C[C@H]3C[C@@H]2CN3C)c1 [Compound 459, 1-(3,5-difluorophenyl)-N-[3-methyl-5-[(1R,4R)-5-methyl-2,5-diazabicyclo[2.2.1]heptan-2-yl]phenyl]-1,2,4-triazol-3-amine] |  |  | 10 to 100 | ≤ 1 |  | 
COC(=O)N1CCN(c2cc(C)cc(Nc3ncn(-c4cc(F)cc(F)c4)n3)c2)CC1 [Compound 422, methyl 4-[3-[[1-(3,5-difluorophenyl)-1,2,4-triazol-3-yl]amino]-5-methyl-phenyl]piperazine-1-carboxylate] |  |  | ≤ 1 | 100 to 1000 |  | 
COc1cc(-n2cnc(Nc3cc(C4CC4)cc(N4CCN(C5COC5)CC4)c3)n2)ncn1 [Compound 377, N-[3-cyclopropyl-5-[4-(oxetan-3-yl)piperazin-1-yl]phenyl]-1-(6-methoxypyrimidin-4-yl)-1,2,4-triazol-3-amine] |  |  |  |  | 100 to 1000 | 10 to 100
CCCc1cc(Nc2ncn(-c3ccc(F)c(F)c3)n2)cc(N2CCN(C3COC3)CC2)c1 [Compound 559, 1-(3,4-difluorophenyl)-N-[3-[4-(oxetan-3-yl)piperazin-1-yl]-5-propyl-phenyl]-1,2,4-triazol-3-amine] |  |  | 100 to 1000 | 10 to 100 |  | 
CN1CCN(c2cc(F)cc(Nc3ncn(-c4cccc(F)c4)n3)c2)CC1 [Compound 203, N-[3-fluoro-5-(4-methylpiperazin-1-yl)phenyl]-1-(3-fluorophenyl)-1,2,4-triazol-3-amine] |  |  |  |  | 100 to 1000 | ≤ 1
COc1cc(Nc2ncn(-c3cccc(F)c3)n2)cc(N2CCN(C3COC3)CC2)c1 [Compound 258, 1-(3-fluorophenyl)-N-[3-methoxy-5-[4-(oxetan-3-yl)piperazin-1-yl]phenyl]-1,2,4-triazol-3-amine] |  |  |  |  | 100 to 1000 | 1 to 10
Cc1cc(Nc2ncn(-c3ccccc3)n2)cc(Nc2nccs2)c1 [Compound 643, 5-methyl-N3-(1-phenyl-1,2,4-triazol-3-yl)-N1-thiazol-2-yl-benzene-1,3-diamine] |  |  | 10 to 100 | ≤ 1 |  | 
Fc1ccc(-n2cnc(Nc3cc(C(F)(F)F)cc(N4CCN(C5COC5)CC4)n3)n2)cc1F [Compound 546, N-[1-(3,4-difluorophenyl)-1,2,4-triazol-3-yl]-6-[4-(oxetan-3-yl)piperazin-1-yl]-4-(trifluoromethyl)pyridin-2-amine] |  |  | 1 to 10 | 10 to 100 |  | 
Cc1cc(Nc2ncn(-c3cccc(OC(F)(F)F)c3)n2)cc(N2CCN(C3COC3)CC2)c1 [Compound 252, N-[3-methyl-5-[4-(oxetan-3-yl)piperazin-1-yl]phenyl]-1-[3-(trifluoromethoxy)phenyl]-1,2,4-triazol-3-amine] |  |  |  |  | 1000 to 10000 | 10 to 100
Cc1cc(NCC2(N3CCOCC3)CC2)cc(Nc2ncn(-c3cc(F)cc(F)c3)n2)c1 [Compound 951, N1-[1-(3,5-difluorophenyl)-1,2,4-triazol-3-yl]-5-methyl-N3-[(1-morpholinocyclopropyl)methyl]benzene-1,3-diamine] | 1 to 10 | ≤ 1 |  |  |  | 
Cc1cc(Nc2ncn(-c3cc(F)cc(F)c3)n2)cc(N2CCC3(CC2)COC3)c1 [Compound 279, 1-(3,5-difluorophenyl)-N-[3-methyl-5-(2-oxa-7-azaspiro[3.5]nonan-7-yl)phenyl]-1,2,4-triazol-3-amine] |  |  |  |  | 100 to 1000 | 100 to 1000
Cc1cc(Nc2ncn(-c3cc(F)cc(F)c3)n2)cc(N2CCOC(CO)C2)c1 (stereo not drawn) [Compound 1073, [4-[3-[[1-(3,5-difluorophenyl)-1,2,4-triazol-3-yl]amino]-5-methyl-phenyl]morpholin-2-yl]methanol] | 10 to 100 | ≤ 1 |  |  |  | 
Cc1cc(Nc2ncn(-c3cc(F)cc(OC(C)C)c3)n2)cc(N2CCN(C3COC3)CC2)c1 [Compound 415, 1-(3-fluoro-5-isopropoxy-phenyl)-N-[3-methyl-5-[4-(oxetan-3-yl)piperazin-1-yl]phenyl]-1,2,4-triazol-3-amine] |  |  | 100 to 1000 | ≤ 1 |  | 
Cc1cc(Nc2ncn(-c3cc(F)cc(F)c3)n2)cc(NC2CCCN(CCF)C2)c1 (stereo not drawn) [Compound 873, N3-[1-(3,5-difluorophenyl)-1,2,4-triazol-3-yl]-N1-[1-(2-fluoroethyl)-3-piperidyl]-5-methyl-benzene-1,3-diamine] | 1 to 10 | ≤ 1 |  |  |  | 
COCCN1CCN(c2cc(C)cc(Nc3ncn(-c4cc(F)cc(F)c4)n3)c2)CC1C (stereo not drawn) [Compound 1011, 1-(3,5-difluorophenyl)-N-[3-[4-(2-methoxyethyl)-3-methyl-piperazin-1-yl]-5-methyl-phenyl]-1,2,4-triazol-3-amine] | 10 to 100 | ≤ 1 |  |  |  | 
Cc1cc(Nc2ncn(-c3cc(F)cc(F)c3)n2)cc(N2CCOC(CN3CCCC3)C2)c1 (stereo not drawn) [Compound 1027, 1-(3,5-difluorophenyl)-N-[3-methyl-5-[2-(pyrrolidin-1-ylmethyl)morpholin-4-yl]phenyl]-1,2,4-triazol-3-amine] | 1 to 10 | ≤ 1 |  |  |  | 
Cc1cc(Nc2ncn(-c3cc(F)cc(F)c3)n2)cc(N2CCN(C)C(CO)C2)c1 (stereo not drawn) [Compound 53, [4-[3-[[1-(3,5-difluorophenyl)-1,2,4-triazol-3-yl]amino]-5-methyl-phenyl]-1-methyl-piperazin-2-yl]methanol] |  |  |  |  | 10 to 100 | ≤ 1
FC(F)(F)c1cc(Nc2ncn(-c3ccccc3)n2)nc(N2CCN(C3COC3)CC2)c1 [Compound 547, 6-[4-(oxetan-3-yl)piperazin-1-yl]-N-(1-phenyl-1,2,4-triazol-3-yl)-4-(trifluoromethyl)pyridin-2-amine] |  |  | 100 to 1000 | 10 to 100 |  | 
CCc1cc(Nc2ncn(-c3cnccn3)n2)cc(N2CCN(C(=O)OC(C)(C)C)CC2)c1 [Compound 368, tert-butyl 4-[3-ethyl-5-[(1-pyrazin-2-yl-1,2,4-triazol-3-yl)amino]phenyl]piperazine-1-carboxylate] |  |  |  |  | 10 to 100 | 1 to 10
COCc1ccccc1-n1cnc(Nc2cc(C)cc(N3CCN(C4COC4)CC3)c2)n1 [Compound 233, 1-[2-(methoxymethyl)phenyl]-N-[3-methyl-5-[4-(oxetan-3-yl)piperazin-1-yl]phenyl]-1,2,4-triazol-3-amine] |  |  |  |  | ≤ 1 | ≤ 1
Clc1cc(Nc2ncn(-c3ccncn3)n2)cc(N2CC(N3CCOCC3)C2)c1 [Compound 863, N-[3-chloro-5-(3-morpholinoazetidin-1-yl)phenyl]-1-pyrimidin-4-yl-1,2,4-triazol-3-amine] | 10 to 100 | 10 to 100 |  |  |  | 
Cc1cc(Nc2ncn(-c3ccc(F)c(F)c3)n2)cc(NC2CC(N3CCOCC3)C2)c1 (stereo not drawn) [Compound 799, N3-[1-(3,4-difluorophenyl)-1,2,4-triazol-3-yl]-5-methyl-N1-(3-morpholinocyclobutyl)benzene-1,3-diamine] | 10 to 100 | ≤ 1 |  |  |  | 
